Results: patent publication US10947188B2, “Small molecule ferroptosis inducers” (THE TRUSTEES OF COLUMBIA UNIVERSITY IN THE CITY OF NEW YORK, priority 2016, dated 2021)

Columns and labels:
BJeLR = assay: Modulatory profiling: Alamar Blue viability, lethal compound cotreated with death modulator (EC50, AUC); assay type: cell-based, human; design: AUC, modulator BJ.Gd3+ / AUC, modulator BJ.LNAME / AUC, modulator BJ.Lmin / AUC, modulator BJ.3MA / AUC, modulator BJ.ALLN / AUC, modulator BJ.Boc D / AUC, modulator BJ.CHX / AUC, modulator BJ.Co2+ / AUC, modulator BJ.Nec-1 / AUC, modulator BJ.Pepstatin / AUC, modulator BJ.TLCK / AUC, modulator BJ.atoc / AUC, modulator BJ.trolox / AUC, modulator BJ.zVAD: unit not given beside the values; conditions: BJeLR cells, modulatory profile value (AUC); for AUC, modulator BJ.3MA: lethal compound cotreated with modulator 3MA; for AUC, modulator BJ.ALLN: lethal compound cotreated with modulator ALLN; for AUC, modulator BJ.Boc D: lethal compound cotreated with modulator Boc D; for AUC, modulator BJ.CHX: lethal compound cotreated with modulator CHX; for AUC, modulator BJ.Co2+: lethal compound cotreated with modulator Co2+; for AUC, modulator BJ.DPQ: lethal compound cotreated with modulator DPQ; for AUC, modulator BJ.Gd3+: lethal compound cotreated with modulator Gd3+; for AUC, modulator BJ.LNAME: lethal compound cotreated with modulator LNAME; for AUC, modulator BJ.Lmin/NAD+: lethal compound cotreated with modulator Lmin/NAD+; for AUC, modulator BJ.Lmin: lethal compound cotreated with modulator Lmin; for AUC, modulator BJ.NAD+: lethal compound cotreated with modulator NAD+; for AUC, modulator BJ.NMMA: lethal compound cotreated with modulator NMMA; for AUC, modulator BJ.Nec-1: lethal compound cotreated with modulator Nec-1; for AUC, modulator BJ.Pepstatin: lethal compound cotreated with modulator Pepstatin; for AUC, modulator BJ.TLCK: lethal compound cotreated with modulator TLCK; on AUC, modulator BJ.3MA: reference of the scale not given here; on AUC, modulator BJ.ALLN: reference of the scale not given here; on AUC, modulator BJ.Boc D: reference of the scale not given here; on AUC, modulator BJ.CHX: reference of the scale not given here; on AUC, modulator BJ.Co2+: reference of the scale not given here; on AUC, modulator BJ.DPQ: reference of the scale not given here; on AUC, modulator BJ.Gd3+: reference of the scale not given here; on AUC, modulator BJ.LNAME: reference of the scale not given here; on AUC, modulator BJ.NAD+: reference of the scale not given here; on AUC, modulator BJ.NMMA: reference of the scale not given here; on AUC, modulator BJ.Nec-1: reference of the scale not given here; on AUC, modulator BJ.Pepstatin: reference of the scale not given here; on AUC, modulator BJ.TLCK: reference of the scale not given here
HT-1080 = assay: as above; assay type: cell-based; design: AUC, modulator HT.3MA / AUC, modulator HT.ALLN / AUC HT.ATA / AUC HT.ActD / AUC HT.BHA / AUC HT.BHT / AUC HT.BocD / AUC HT.CHX / AUC HT.Co2+ / AUC HT.DPQ / AUC HT.EGTA / AUC HT.Lmim / AUC HT.NAD+ / AUC HT.Nec-1 / AUC HT.SP600125 / AUC HT.TLCK / AUC HT.U0126: unit not given beside the values; conditions: for AUC HT.ATA: HT-1080, modulator ATA; for AUC HT.ActD: HT-1080, modulator ActD; for AUC HT.BHA: HT-1080, modulator BHA; for AUC HT.BHT: HT-1080, modulator BHT; for AUC HT.BocD: HT-1080, modulator BocD; for AUC HT.CHX: HT-1080, modulator CHX; for AUC HT.Co2+: HT-1080, modulator Co2+; for AUC HT.CspA: HT-1080, modulator CspA; for AUC HT.DPQ: HT-1080, modulator DPQ; for AUC HT.EGTA: HT-1080, modulator EGTA; for AUC HT.Gd3+: HT-1080, modulator Gd3+; for AUC HT.LNAME: HT-1080, modulator LNAME; for AUC HT.Lmim: HT-1080, modulator Lmim; for AUC HT.NAD+: HT-1080, modulator NAD+; for AUC HT.NMMA: HT-1080, modulator NMMA; for HT.atoc (AUC) / HT.bCarotene (AUC) / HT.deferox (AUC) / HT.digoxin (AUC) / HT.trolox (AUC) / HT.zVAD (AUC): HT-1080; for HT.atoc (AUC): modulator atoc; for HT.bCarotene (AUC): modulator bCarotene; for HT.deferox (AUC): modulator deferox; for HT.digoxin (AUC): modulator digoxin; for HT.trolox (AUC): modulator trolox; for HT.zVAD (AUC): modulator zVAD; on AUC HT.BHA: reference of the scale not given here; on AUC HT.EGTA: reference of the scale not given here

COc1c2c(cc3c1C(CC(=O)/C=C/c1ccccc1)[N+](C)(C)CC3)OCO2 (stereo not drawn) [CIL77]
AUC, modulator BJ.3MA (BJeLR): −0.05728
AUC, modulator BJ.ALLN (BJeLR): 0.01826
AUC, modulator BJ.Boc D (BJeLR): 0.05622
AUC, modulator BJ.CHX (BJeLR): 0.2548
AUC, modulator BJ.Co2+ (BJeLR): 0.1866
AUC, modulator BJ.DPQ (BJeLR): −0.009273
AUC, modulator BJ.Gd3+ (BJeLR): −0.007344
AUC, modulator BJ.LNAME (BJeLR): 0.03349
AUC, modulator BJ.Lmin/NAD+ (BJeLR): 0.04982
AUC, modulator BJ.Lmin (BJeLR): −0.04848
AUC, modulator BJ.NAD+ (BJeLR): −0.05677
AUC, modulator BJ.NMMA (BJeLR): −0.02771
AUC, modulator BJ.Nec-1 (BJeLR): −0.06543
AUC, modulator BJ.Pepstatin (BJeLR): 0.07338
AUC, modulator BJ.TLCK (BJeLR): −0.05565
AUC HT.ATA (HT-1080): 0.05492
AUC HT.ActD (HT-1080): 0.0959
AUC HT.BHA (HT-1080): −0.008714
AUC HT.BHT (HT-1080): −0.07998
AUC HT.BocD (HT-1080): −0.02828
AUC HT.CHX (HT-1080): 0.1436
AUC HT.Co2+ (HT-1080): 0.1261
AUC HT.CspA (HT-1080): −0.05791
AUC HT.DPQ (HT-1080): 0.003496
AUC HT.EGTA (HT-1080): −0.00345
AUC HT.Gd3+ (HT-1080): −0.0368
AUC HT.LNAME (HT-1080): 0.01693
AUC HT.Lmim (HT-1080): 0.02573
AUC HT.NAD+ (HT-1080): 0.003357
AUC HT.NMMA (HT-1080): −0.01509
HT.atoc (AUC) (HT-1080): 0.02076
HT.bCarotene (AUC) (HT-1080): −0.005078
HT.deferox (AUC) (HT-1080): 0.09145
HT.digoxin (AUC) (HT-1080): −0.01405
HT.trolox (AUC) (HT-1080): −0.01064
HT.zVAD (AUC) (HT-1080): 0.02554

C[C@H]1CCC[C@]2(C)C[C@H]3OC(=O)[C@H](CN4CCCC4)[C@H]3C=C12 [CIL80]
AUC, modulator BJ.3MA (BJeLR): 0.00654
AUC, modulator BJ.ALLN (BJeLR): −0.004769
AUC, modulator BJ.Boc D (BJeLR): 0.008783
AUC, modulator BJ.CHX (BJeLR): 0.1351
AUC, modulator BJ.Co2+ (BJeLR): 0.09506
AUC, modulator BJ.DPQ (BJeLR): −0.03368
AUC, modulator BJ.Gd3+ (BJeLR): 0.01802
AUC, modulator BJ.LNAME (BJeLR): 0.02901
AUC, modulator BJ.Lmin/NAD+ (BJeLR): 0.09271
AUC, modulator BJ.Lmin (BJeLR): 0.01639
AUC, modulator BJ.NAD+ (BJeLR): −0.008515
AUC, modulator BJ.NMMA (BJeLR): −3.885E−05
AUC, modulator BJ.Nec-1 (BJeLR): −0.01593
AUC, modulator BJ.Pepstatin (BJeLR): 0.03142
AUC, modulator BJ.TLCK (BJeLR): −0.006094
AUC HT.ATA (HT-1080): 0.05781
AUC HT.ActD (HT-1080): 0.08002
AUC HT.BHA (HT-1080): 0.009452
AUC HT.BHT (HT-1080): −0.01971
AUC HT.BocD (HT-1080): −0.02337
AUC HT.CHX (HT-1080): 0.09741
AUC HT.Co2+ (HT-1080): 0.112
AUC HT.CspA (HT-1080): 0.01161
AUC HT.DPQ (HT-1080): −0.01717
AUC HT.EGTA (HT-1080): 0.0199
AUC HT.Gd3+ (HT-1080): −0.03226
AUC HT.LNAME (HT-1080): 0.01972
AUC HT.Lmim (HT-1080): 0.05449
AUC HT.NAD+ (HT-1080): 0.01251
AUC HT.NMMA (HT-1080): −0.01256
HT.atoc (AUC) (HT-1080): 0.004877
HT.bCarotene (AUC) (HT-1080): 0.003874
HT.deferox (AUC) (HT-1080): 0.1672
HT.digoxin (AUC) (HT-1080): 0.06493
HT.trolox (AUC) (HT-1080): −0.01954
HT.zVAD (AUC) (HT-1080): 0.03135

CC(C(NNC(=O)c1ccc(C(F)(F)F)cc1)c1ccc(Br)cc1)[N+](=O)[O-] (stereo not drawn) [CIL87]
AUC, modulator BJ.3MA (BJeLR): −0.002764
AUC, modulator BJ.ALLN (BJeLR): −0.08721
AUC, modulator BJ.Boc D (BJeLR): −0.0134
AUC, modulator BJ.CHX (BJeLR): 0.295
AUC, modulator BJ.Co2+ (BJeLR): 0.1416
AUC, modulator BJ.DPQ (BJeLR): −0.03202
AUC, modulator BJ.Gd3+ (BJeLR): 0.0149
AUC, modulator BJ.LNAME (BJeLR): 0.02319
AUC, modulator BJ.Lmin/NAD+ (BJeLR): 0.07639
AUC, modulator BJ.Lmin (BJeLR): 0.0007714
AUC, modulator BJ.NAD+ (BJeLR): −0.03293
AUC, modulator BJ.NMMA (BJeLR): −0.007384
AUC, modulator BJ.Nec-1 (BJeLR): −0.0482
AUC, modulator BJ.Pepstatin (BJeLR): −0.03283
AUC, modulator BJ.TLCK (BJeLR): 0.003206
AUC HT.ATA (HT-1080): 0.1137
AUC HT.ActD (HT-1080): −0.007586
AUC HT.BHA (HT-1080): −0.003358
AUC HT.BHT (HT-1080): −0.08317
AUC HT.BocD (HT-1080): −0.007134
AUC HT.CHX (HT-1080): 0.0673
AUC HT.Co2+ (HT-1080): 0.03163
AUC HT.CspA (HT-1080): −0.05358
AUC HT.DPQ (HT-1080): −0.02562
AUC HT.EGTA (HT-1080): 0.005305
AUC HT.Gd3+ (HT-1080): −0.02756
AUC HT.LNAME (HT-1080): 0.005257
AUC HT.Lmim (HT-1080): −0.002116
AUC HT.NAD+ (HT-1080): −0.001926
AUC HT.NMMA (HT-1080): −0.01237
HT.atoc (AUC) (HT-1080): 0.05929
HT.bCarotene (AUC) (HT-1080): 0.01927
HT.deferox (AUC) (HT-1080): 0.07034
HT.digoxin (AUC) (HT-1080): 0.04582
HT.trolox (AUC) (HT-1080): −0.03188
HT.zVAD (AUC) (HT-1080): 0.02258
